Results reported in patent US20110098219A1, “System for Curing Hepatic Cancer with Leptin” (KAOHSIUNG MEDICAL UNIVERSITY, priority 2009, published 2011).

Columns and labels:
Type in all cases: cell-based
JAK/STAT path = assay: Western blotting of JAK/STAT path proteins in liver cancer cells; conditions: 10^-6 M U0126 for 4 hours, then MPA+leptin for 3 hours
Procedure: Please refer to FIG. 11, which is a view showing expression of JAK/STAT path after applied with a drug. As shown in the figure, the preferred embodiment analyzes related proteins of liver cancer cells through western blotting after applied with MPA+leptin for 24 hours.
(§1) Please refer to FIG. 13A and FIG. 13A, which are views showing expressions of proteins of JAK/STAT path and proteins of MAPK path after applied with a drug for a short time. As shown in the figures, the preferred embodiment processes liver cancer cells with high-dose leptin, high-dose MPA and high-dose leptin combined with high-dose MPA for 30 minutes. Then, related JAK/STAT proteins are collected for analyzing their expressions through western blotting.
Please refer to FIG. 14, which is a view showing reduced p-STAT3 degradation by suppressing the ERK1/2 activation and the PIAS3 expression. […] The preferred embodiment uses a 10^−6M p-ERK1/2 inhibitor (U0126) for 4 hours before a drug is applied; then, liver cancer cells are applied with the drug of MPA+leptin for 3 hours to collect cellular proteins for analyzing expression of related proteins through western blotting. […] As a conclusion, MPA activates ERK1/2 to indirectly induce PIAS3 expression for suppressing p-STAT3 (Tyr705) for cell apoptosis, where leptin enhances activation of ERK1/2 with MPA for increasing cell apoptosis.
(§2) Please refer to FIG. 15A to FIG. 16B, which are views showing cells containing very much leptin within; suppressed growth of the cells by using MPA; and STAT3- and MAPK-signal paths of the cells after MPA is applied. […] Then, after the cells are processed with 10^−4M MPA for 24 hours, cell growth is analyzed through XTT assay. […] Then, after the cells are processed with 10^−4 M MPA for 24 hours, JAK/STAT-related proteins are analyzed through western blotting.

MAPK path = assay: Western blotting of MAPK path proteins in liver cancer cells; conditions: 10^-6 M U0126 for 4 hours, then MPA+leptin for 3 hours
From the text: Please refer to FIG. 12, which is a view showing expression of MAPK path after applied with a drug. As shown in the figure, after proteins for the JAK2/STAT3 path are suppressed, the preferred embodiment analyzes expression of the proteins through western blotting.
as §1
Please refer to FIG. 14, which is a view showing reduced p-STAT3 degradation by suppressing the ERK1/2 activation and the PIAS3 expression. […]
as §2

[1] = system: liver cancer cells (hepatocellular carcinoma cell line); assay: XTT assay, growth of liver cancer cells; conditions: high-dose leptin (100 ng), 24 hours
Procedure: Please refer to FIG. 2, which is a view showing leptin's effect on growth of liver cancer cells. As shown in the figure, for acquiring effect of leptin on liver cancer cells, the preferred embodiment uses leptin having different doses, where the high-dose leptin has 100 nano-grams (ng) and the low-dose leptin has 10 ng. The 10 ng leptin is conformed to the physiological concentration of normal human body for observing effect of leptin on the cells. In the other hand, the 100 ng leptin is used to show whether a higher levels of leptin obtains a higher effect on the cells.
Please refer to FIG. 3, which is a view showing MPA's effect on growth of liver cancer cells. As shown in the figure, the preferred embodiment applies MPA having different doses to liver cancer cells.
Please refer to FIG. 4, which is a view showing effect of MPA+leptin on growth of liver cancer cells. As shown in the figure, the preferred embodiment applies MPA combined with leptin to liver cancer cells, where MPA has different doses and leptin has different doses.
Please refer to FIG. 9, which is a view showing reduced effect of MPA+leptin by suppressing leptin receptor expression. As shown in the figure, a 20 nano-moles (nM) of leptin receptor, siRNA, is transferred to cells to be cultured a day and is cultured in a serum-free medium for the next day. Then, the cells are processed with MPA+leptin for 24 hours to be analyzed through XTT assay. […] Thus, it is confirmed that leptin enhances MPA's suppression on the cells through the leptin receptor.
Please refer to FIG. 10A and FIG. 10B, which are views showing apoptosis of cells on increasing expression of leptin receptor and expression of progesterone receptor respectively. As shown in the figures, the preferred embodiment makes ob-Rb plasmid transfected to cells to be cultured a day and is cultured in a serum-free medium for the next day. Then, the cells are processed with MPA+leptin for 24 hours to be analyzed through XTT assay. […] Besides, the long-form Ob-R enhances expression of the progesterone receptor. Again, the preferred embodiment makes PgR plasmid transfected to cells to be cultured a day and is cultured in a serum-free medium for the next day. Then, the cells are processed with MPA+leptin for 24 hours to be analyzed through XTT assay.
Please refer to FIG. 15A to FIG. 16B, which are views showing cells containing very much leptin within; suppressed growth of the cells by using MPA; and STAT3- and MAPK-signal paths of the cells after MPA is applied. As shown in the figures, while leptin is added from outside in state 13 to suppress liver cancer cells with MPA+leptin, the preferred embodiment here transfers expression plasmid of leptin (pcLeptin) to liver cancer cells to be cultured for a day; and a serum-free medium is used for the next day. Then, after the cells are processed with 10^−4M MPA for 24 hours, cell growth is analyzed through XTT assay. In FIG. 15A, leptin gene is transferred to cells for a short time for obtaining very much leptin within the cells by themselves. After applying MPA to the cells for 24 hours, it is confirmed that MPA's suppression on liver cancer cells is enhanced by a lot of leptin self-generated within the cells. Moreover, after obtaining a lot of leptin, medium is collected for immunoprecipitation and further western blotting. […] Then, after the cells are processed with 10^−4 M MPA for 24 hours, JAK/STAT-related proteins are analyzed through western blotting.

[2] = system: epithelial cell line of normal liver (THLE-3); assay: XTT assay, survival of normal liver epithelial cell line; conditions: THLE-3, FIG. 17A
Procedure: (§3) Please refer to FIG. 17A to FIG. 18B, which are views showing epithelial cell line of normal liver treated with MPA+leptin for 24 hours and 48 hours respectively; and views showing STAT3- and MAPK-related signal paths after treating cell line of normal liver with MPA+leptin. As shown in the figures, after epithelial cell line of normal liver (THLE-3) is applied with MPA+leptin for […], MPA+leptin's effect on cell growth (i.e. survival rate) is analyzed through XTT assay. […] Besides, in FIG. 18A and FIG. 18B, protein expressions for STAT- and MAPK-related signal paths are analyzed.

[3] = system: STAT- and MAPK-related signal paths; assay: Protein expression of STAT- and MAPK-related signal paths in normal liver cell line
Procedure: as §3

Molecule | expression of p-STAT3 (Tyr705) (JAK/STAT path) | PIAS3 (MAPK path) | phosphorylation of ERK1/2 (MAPK path) | effect on growth of liver cancer cells [1] | effect on survival rate of, and poisoning of, normal liver epithelial cells [2] | effect on STAT- and MAPK-related signal proteins [3]
N#CC(=C(/N)Sc1ccccc1N)/C(C#N)=C(\N)Sc1ccccc1N [U0126] | suppressed | not induced | suppressed | – | – | –
leptin: hormone of single-chain protein; adipokine generated by adipocyte | – | – | – | no obvious effect | no obvious effect | no obvious effect
